The values that follow come from patent US12122816B2, “Long acting peptide tyrosine tyrosine (PYY) analogs and methods of use” (Intarcia Therapeutics, Inc., priority 2020, dated 2024).

The nature of data set [1]: In vitro metabolic stability in kidney brush border membranes (kBBM). Conditions: pH 7.4, human kBBM 50 mcg protein/mL, 1 mcM peptide, 37° C., read-out: hkBBM t½ (converted). It counts as in vitro ADME. How it is done: In vitro incubations in kidney brush border membrane (kBBM) preparations were used to characterize the ability of peptides to resist degradation by proteases and peptidases in the systemic circulation. kBBM were selected because they contain a high concentration of a diverse set of proteases and peptidases, many of which are present throughout the body.
Brush border membranes from rat and human kidney tissue were prepared via centrifugation and stored at −70° C. Thawed stocks of rat or human kBBM were diluted to the appropriate concentration in 25 mM HEPES buffer (pH 7.4) containing 1% casein and aliquoted into a 96-well plate. The kBBM solutions were pre-warmed for 10 minutes at 37° C. […] The final concentration of kBBM in each incubation was 50 mcg protein/mL. Reactions were maintained at 37° C. in a shaking water bath. […] Quenched samples were centrifuged at 2178×g for 10 min and then a portion of the supernatants were transferred to a clean 96-well plate and diluted 1:1 with water. Samples were analyzed by UPLC-MS/MS.

Data set [2] can be described thus: In vitro stability in subcutaneous (SC) tissue homogenates. It counts as in vitro ADME. Conditions: subcutaneous tissue homogenate, pH 7.4; human SC tissue homogenate 1.0 mg protein/mL, 10 mcM peptide, 37° C.; read-out: (H)SC tissue stability t½ (converted). How it is done:
In vitro incubations in subcutaneous (SC) tissue homogenates were used to characterize the ability of peptides to resist pre-systemic degradation by proteases and peptidases after SC administration. […] Peptides with high SC bioavailability are stable in this assay, while peptides with low SC bioavailability are unstable in this assay.
Human SC tissue was homogenized in cold 25 mM HEPES buffer (pH 7.4, 10-fold volume based on sample weight), and then filtered through a double layer of cheesecloth. The filtrates were aliquoted, flash frozen on a methanol/dry ice bath and stored at −80° C. The protein concentration of each pooled batch was determined using the BCA protein assay. Thawed stocks of human SC tissue homogenates were diluted to 1.0 mg protein/mL in 25 mM HEPES buffer (pH 7.4) and aliquoted into a 96-well plate. The diluted SC homogenates were pre-warmed for 10 minutes at 37° C. […] Reactions were maintained at 37° C. in a shaking water bath. […] Quenched samples were centrifuged at 2178×g for 10 min and then a portion of the supernatants were transferred to a clean 96-well plate and diluted 1:10 with water. Samples were analyzed by UPLC-MS/MS.

Data set [3] deals with T1, human Y2 receptor (Homo sapiens, UniProt P49146).
T1 sequence (P49146 1-381): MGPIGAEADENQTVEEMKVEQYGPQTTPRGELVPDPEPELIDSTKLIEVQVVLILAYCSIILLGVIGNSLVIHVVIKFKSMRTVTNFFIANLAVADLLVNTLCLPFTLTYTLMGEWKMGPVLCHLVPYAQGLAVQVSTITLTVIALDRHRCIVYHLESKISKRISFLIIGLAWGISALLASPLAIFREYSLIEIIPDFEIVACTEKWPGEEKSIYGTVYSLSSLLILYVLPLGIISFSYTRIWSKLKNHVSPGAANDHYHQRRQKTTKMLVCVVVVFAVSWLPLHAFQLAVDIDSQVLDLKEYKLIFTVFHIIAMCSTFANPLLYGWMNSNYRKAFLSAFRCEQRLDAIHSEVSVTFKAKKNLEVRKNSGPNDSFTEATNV
Put plainly: NPY receptor functional assay (cAMP, HEK-CNG cells, ACTOne membrane potential dye). It counts as cell-based. The conditions noted are these: NPY2R pEC50, HEK-CNG cells; standard PYY(3-36); species (human or rat) not given. In outline:
(§1)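 HEK-CNG cells stably expressing each human receptor; peptides added in triplicate for 50 minutes at room temperature, with agonism read as decreased isoproterenol-induced membrane potential dye signal (final/initial read).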

Data set [4] addresses T2, human Y5 receptor (Homo sapiens, UniProt Q15761).
T2 sequence (Q15761 1-445): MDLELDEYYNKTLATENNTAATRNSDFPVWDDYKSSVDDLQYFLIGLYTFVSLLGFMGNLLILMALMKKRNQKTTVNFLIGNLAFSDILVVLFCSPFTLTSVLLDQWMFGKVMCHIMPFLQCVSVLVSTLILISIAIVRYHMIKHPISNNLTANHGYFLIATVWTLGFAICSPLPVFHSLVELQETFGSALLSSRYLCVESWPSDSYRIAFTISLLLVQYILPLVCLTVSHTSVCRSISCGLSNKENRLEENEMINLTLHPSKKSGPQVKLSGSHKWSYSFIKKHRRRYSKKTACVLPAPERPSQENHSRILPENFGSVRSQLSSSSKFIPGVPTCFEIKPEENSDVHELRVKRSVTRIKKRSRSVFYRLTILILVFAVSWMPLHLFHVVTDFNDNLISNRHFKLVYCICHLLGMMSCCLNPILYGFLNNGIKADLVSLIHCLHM
The description is as above. It counts as cell-based. Conditions: NPY5R pEC50, HEK-CNG cells; standard NPY; species (human or rat) not given. In outline:
as §1

For data set [5], the target named is human Y4 receptor (Homo sapiens, UniProt P50391). The data set is described as above. It counts as cell-based. The conditions noted are these: standard PP, species (human or rat) not given. In outline:
as §1

Chain of human Y4 receptor (P50391 whole entry): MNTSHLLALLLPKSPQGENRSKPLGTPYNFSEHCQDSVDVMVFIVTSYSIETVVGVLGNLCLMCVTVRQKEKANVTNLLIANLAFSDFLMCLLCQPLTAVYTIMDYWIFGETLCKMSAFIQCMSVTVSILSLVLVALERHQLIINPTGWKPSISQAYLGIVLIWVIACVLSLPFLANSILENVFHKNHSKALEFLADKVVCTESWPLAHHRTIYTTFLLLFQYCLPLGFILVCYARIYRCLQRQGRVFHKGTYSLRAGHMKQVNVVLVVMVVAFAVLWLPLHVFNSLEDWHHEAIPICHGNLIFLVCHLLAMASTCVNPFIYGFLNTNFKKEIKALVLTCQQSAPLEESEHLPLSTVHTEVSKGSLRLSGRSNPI

As usually defined, the EC50 is the concentration at which the effect is half-maximal. A higher EC50 goes with a less potent agent. Regarding `CC(C)C[C@H](NC(=O)[C@H](CC(=O)O)NC(=O)[C@H](CCCCN)NC(=O)[C@H](Cc1ccc(O)cc1)NC(=O)[C@H](Cc1ccc(O)cc1)NC(=O)[C@H](CCCNC(=N)N)NC(=O)[C@H](CC(=O)O)NC(=O)[C@H](Cc1c[nH]c2ccccc12)NC(=O)[C@H](CCC(=O)O)NC(=O)[C@H](CCCCN)NC(=O)[C@@H]1CCCN1C(=O)[C@H](CO)NC(=O)[C@H](C)NC(=O)[C@H](CC(=O)O)NC(=O)[C@H](CCC(=O)O)NC(=O)CNC(=O)[C@@H]1CCCN1C(=O)[C@H](CCCCNC(=O)CC[C@H](NC(=O)CC[C@H](NC(=O)CCCCCCCCCCCCCCCCC(=O)O)C(=O)O)C(=O)O)NC(=O)[C@H](CCC(=O)O)NC(=O)[C@@H]1CCCN1C(=O)[C@H](CCCCN)NC(=O)[C@@H]1CCCN1)C(=O)N[C@@H](CCCNC(=N)N)C(=O)N[C@@H](Cc1c[nH]cn1)C(=O)N[C@@H](Cc1ccc(O)cc1)C(=O)N[C@@H](CC(C)C)C(=O)N[C@@H](CC(N)=O)C(=O)N[C@@H](Cc1c[nH]c2ccccc12)C(=O)N[C@@H](CC(C)C)C(=O)N[C@H](C(=O)N[C@@H](CCCNC(=N)N)C(=O)N[C@@H](CCC(N)=O)C(=O)N[C@@H](CCCNC(=N)N)C(=O)N[C@@H](Cc1ccccc1)C(N)=O)[C@@H](C)O` [Compound A35], the half-life at 1 mcM in data set [1] is 5.6 h. For the same molecule, in data set [2], the half-life at 10 mcM is 1.3 h. The EC50 in data set [3] is 0.0316 nM; in data set [4], 0.794 nM.

Regarding `CC(C)C[C@H](NC(=O)[C@H](Cc1ccc(O)cc1)NC(=O)[C@H](Cc1c[nH]cn1)NC(=O)[C@H](CCCNC(=N)N)NC(=O)[C@H](C)NC(=O)[C@H](CC(=O)O)NC(=O)[C@H](C)NC(=O)[C@H](Cc1ccc(O)cc1)NC(=O)[C@H](Cc1ccc(O)cc1)NC(=O)[C@H](CCCNC(=N)N)NC(=O)[C@H](CC(N)=O)NC(=O)[C@H](Cc1c[nH]c2ccccc12)NC(=O)[C@H](CCC(=O)O)NC(=O)[C@H](CCCCNC(=O)CC[C@H](NC(=O)CC[C@H](NC(=O)CCCCCCCCCCCCCCCCCCC(=O)O)C(=O)O)C(=O)O)NC(=O)[C@@H]1CCCN1C(=O)[C@H](CO)NC(=O)[C@H](C)NC(=O)[C@H](CC(=O)O)NC(=O)[C@H](CCCCN)NC(=O)CNC(=O)[C@@H]1CCCN1C(=O)[C@H](C)NC(=O)[C@H](CCC(=O)O)NC(=O)[C@@H]1CCCN1C(=O)[C@H](CCCCN)NC(=O)[C@@H]1CCCN1)C(=O)N[C@@H](CC(N)=O)C(=O)N[C@@H](Cc1c[nH]c2ccccc12)C(=O)N[C@@H](CC(C)C)C(=O)N[C@H](C(=O)N[C@@H](CCCNC(=N)N)C(=O)N[C@@H](CCC(N)=O)C(=O)N[C@@H](CCCNC(=N)N)C(=O)N(C)[C@@H](Cc1ccc(O)cc1)C(N)=O)[C@@H](C)O` [Compound A8], the EC50 in data set [3] is 0.251 nM; in data set [4], 79.4 nM. Also, the “NPY4R pEC50” value in data set [5] is “inactive”.

For the molecule `CC(C)C[C@H](NC(=O)[C@H](CC(=O)O)NC(=O)[C@H](C)NC(=O)[C@H](Cc1ccc(O)cc1)NC(=O)[C@H](Cc1ccc(O)cc1)NC(=O)[C@H](CCCNC(=N)N)NC(=O)[C@H](CC(N)=O)NC(=O)[C@H](Cc1c[nH]c2ccccc12)NC(=O)[C@H](CCC(=O)O)NC(=O)[C@H](CCC(=O)O)NC(=O)[C@@H]1CCCN1C(=O)[C@H](CO)NC(=O)[C@H](C)NC(=O)[C@H](CC(=O)O)NC(=O)[C@H](CCCCN)NC(=O)CNC(=O)[C@@H]1CCCN1C(=O)[C@H](C)NC(=O)[C@H](CCC(=O)O)NC(=O)[C@@H]1CCCN1C(=O)[C@H](CCCCN)NC(=O)[C@@H]1CCCN1)C(=O)N[C@@H](CCCNC(=N)N)C(=O)N[C@@H](Cc1c[nH]cn1)C(=O)N[C@@H](CCCCNC(=O)CC[C@H](NC(=O)CC[C@H](NC(=O)CCCCCCCCCCCCCCCCCCC(=O)O)C(=O)O)C(=O)O)C(=O)N[C@@H](CC(C)C)C(=O)N[C@@H](CC(N)=O)C(=O)N[C@@H](Cc1c[nH]c2ccccc12)C(=O)N[C@@H](CC(C)C)C(=O)N[C@H](C(=O)N[C@@H](CCCNC(=N)N)C(=O)N[C@@H](CCC(N)=O)C(=O)N[C@@H](CCCNC(=N)N)C(=O)N[C@@H](Cc1ccccc1)C(N)=O)[C@@H](C)O` [Compound A52], the concentration giving a half-maximal response (EC50) was 3.98 nM in data set [3] and 10 nM in data set [4]. Besides, in data set [5], the “NPY4R pEC50” value was “inactive”.

With `CC(C)C[C@H](NC(=O)[C@H](CC(=O)O)NC(=O)[C@H](CCCCNC(=O)CC[C@H](NC(=O)CC[C@H](NC(=O)CCCCCCCCCCCCCCCCCCC(=O)O)C(=O)O)C(=O)O)NC(=O)[C@H](Cc1ccc(O)cc1)NC(=O)[C@H](Cc1ccc(O)cc1)NC(=O)[C@H](CCCNC(=N)N)NC(=O)[C@H](CC(N)=O)NC(=O)[C@H](Cc1c[nH]c2ccccc12)NC(=O)[C@H](CCC(=O)O)NC(=O)[C@H](CCC(=O)O)NC(=O)[C@@H]1CCCN1C(=O)[C@H](CO)NC(=O)[C@H](C)NC(=O)[C@H](CC(=O)O)NC(=O)[C@H](CCCCN)NC(=O)CNC(=O)[C@@H]1CCCN1C(=O)[C@H](C)NC(=O)[C@H](CCC(=O)O)NC(=O)[C@@H]1CCCN1C(=O)[C@H](CCCCN)NC(=O)[C@@H]1CCCN1)C(=O)N[C@@H](CCCNC(=N)N)C(=O)N[C@@H](Cc1c[nH]cn1)C(=O)N[C@@H](Cc1ccc(O)cc1)C(=O)N[C@@H](CC(C)C)C(=O)N[C@@H](CC(N)=O)C(=O)N[C@@H](Cc1c[nH]c2ccccc12)C(=O)N[C@@H](CC(C)C)C(=O)N[C@H](C(=O)N[C@@H](CCCNC(=N)N)C(=O)N[C@@H](CCC(N)=O)C(=O)N[C@@H](CCCNC(=N)N)C(=O)N[C@@H](Cc1ccccc1)C(N)=O)[C@@H](C)O` [Compound A54], the EC50 in data set [3] is 20 nM; in data set [4], 10 nM. Moreover, in data set [5], the “NPY4R pEC50” value was “inactive”.

For the molecule `CC(C)C[C@H](NC(=O)[C@H](CC(=O)O)NC(=O)[C@H](C)NC(=O)[C@H](Cc1ccc(O)cc1)NC(=O)[C@H](Cc1ccc(O)cc1)NC(=O)[C@H](CCCNC(=N)N)NC(=O)[C@H](CCCCNC(=O)CC[C@H](NC(=O)CC[C@H](NC(=O)CCCCCCCCCCCCCCCCCCC(=O)O)C(=O)O)C(=O)O)NC(=O)[C@H](Cc1c[nH]c2ccccc12)NC(=O)[C@H](CCC(=O)O)NC(=O)[C@H](CCC(=O)O)NC(=O)[C@@H]1CCCN1C(=O)[C@H](CO)NC(=O)[C@H](C)NC(=O)[C@H](CC(=O)O)NC(=O)[C@H](CCCCN)NC(=O)CNC(=O)[C@@H]1CCCN1C(=O)[C@H](C)NC(=O)[C@H](CCC(=O)O)NC(=O)[C@@H]1CCCN1C(=O)[C@H](CCCCN)NC(=O)[C@@H]1CCCN1)C(=O)N[C@@H](CCCNC(=N)N)C(=O)N[C@@H](Cc1c[nH]cn1)C(=O)N[C@@H](Cc1ccc(O)cc1)C(=O)N[C@@H](CC(C)C)C(=O)N[C@@H](CC(N)=O)C(=O)N[C@@H](Cc1c[nH]c2ccccc12)C(=O)N[C@@H](CC(C)C)C(=O)N[C@H](C(=O)N[C@@H](CCCNC(=N)N)C(=O)N[C@@H](CCC(N)=O)C(=O)N[C@@H](CCCNC(=N)N)C(=O)N[C@@H](Cc1ccccc1)C(N)=O)[C@@H](C)O` [Compound A55], the EC50 in data set [3] was 1.26 nM; in data set [4], 20 nM. Besides, the “NPY4R pEC50” value in data set [5] is “inactive”.
